Legend:
Kunming mice = test: Tail suspension test (TST) in mice
rats = test: Conditioned fear stress-induced freezing behavior test in rats; type: in vivo, rat; details: i.p. 24 h and 5 h before footshocks, re-exposure 24 h later
Experimental: Kunming mice (Certificate Number: A4CXK(Chuan)2003-16) from the Institute of Experimental Animals, People's Hospital of Sichuan Province, were used. They were 3-4 weeks old at the beginning of the experiment and weighed 25-30 g. ORG was prepared as described in Example 1. Animals were divided into drug administration groups with different doses of ORG, a vehicle control group, and a diazepam group (Jinyao Ltd. Co., Batch No. 106k1588) as positive control.
Footshock-induced freezing behavior: Animals received an i.p. injection of ORG or vehicle 24 h and 5 h before being placed in a standard conditioning chamber (Med Associates, USA) for a 10 min training session. Two, 4, 6, 8, and 10 min after the onset of the session, a footshock (0.8 mA, 2 s) was delivered through the grid floor of the chamber. The freezing time during the last 5 min were recorded. Rats were placed in the chamber again without footshock 24 h after the first training, and the freezing time was recorded.
Data analysis: The results of the test are expressed as mean±SEM. One-way ANOVA was used followed by the LSD test with SPSS 11 software. The significance level was set at P<0.05.

DD model mice = test: TST in constant darkness (DD) model mice; type: in vivo, mouse; details: for Immobility time (s) (mean ± SEM): oral once a day for 1 week
Experimental: Kunming mice (Certificate Number: A4CXK(Chuan)2003-16) from the Institute of Experimental Animals, People's Hospital of Sichuan Province, were used. They were 3-4 weeks old at the beginning of the experiments and weighed 25-30 g. ORG was prepared as described in Example 1. Animals were divided into experimental groups with different doses, vehicle control groups, and an imipramine group (Sigma, Batch No. 106k1588) as positive control.
DD model in mice: Mice were kept under 24 h continuous dark conditions. The replacement of padding, addition of food and water, and other operations were undertaken in the condition that the intensity of red light was less than 1.0 lux. The period of this condition lasted for 28 days. In the last week, ORG was administered orally once a day for 1 week. The FST and TST were carried out 30 min after the last administration. Methods and data analysis were as described above.

SMILES: Cc1cc(O)cc(OC2OC(CO)C(O)C(O)C2O)c1 [ORG, orcinol-1-O-β-D-glucopyranoside]
- ED50 (Kunming mice; Mus musculus): ~0.73 mg/kg
- dose of the best efficacy (Kunming mice; TST mice, ORG i.g. 24 h and 5 h before test): 12 mg/kg
- Immobility time (s) (mean ± SEM) (Kunming mice; TST mice, i.g. 24 h and 5 h before test, 0.1875 mg/kg): 161.70 ± 6.89 s
- Immobility time (s) (mean ± SEM) (Kunming mice; TST mice, i.g., 0.375 mg/kg): 155.68 ± 6.77 s
- Immobility time (s) (mean ± SEM) (Kunming mice; TST mice, i.g., 0.5 mg/kg): 125.30 ± 6.93 s
- Immobility time (s) (mean ± SEM) (Kunming mice; TST mice, i.g., 0.75 mg/kg): 117.33 ± 6.56 s
- Immobility time (s) (mean ± SEM) (Kunming mice; TST mice, i.g., 1.5 mg/kg): 109.27 ± 6.81 s
- Immobility time (s) (mean ± SEM) (Kunming mice; TST mice, i.g., 3 mg/kg): 98.07 ± 5.95 s
- Immobility time (s) (mean ± SEM) (Kunming mice; TST mice, i.g., 6 mg/kg): 89.73 ± 5.02 s
- Immobility time (s) (mean ± SEM) (Kunming mice; TST mice, i.g., 12 mg/kg): 77.67 ± 5.33 s
- Immobility time (s) (mean ± SEM) (Kunming mice; TST mice, i.g., 24 mg/kg): 91.03 ± 7.44 s
- Immobility time (s) (mean ± SEM) (Kunming mice; TST mice, i.g., 48 mg/kg): 100.20 ± 10.46 s
- Immobility time (s) (mean ± SEM) (Kunming mice; TST mice, i.g., 96 mg/kg): 107.68 ± 8.85 s
- therapeutic index (TI) = TD50÷ED50 (Kunming mice; mice, TST): > 2397
- Duration of freezing (s) (mean ± SEM) (rats; 5 mg/kg): 310.30 ± 66.19 s
- Duration of freezing (s) (mean ± SEM) (rats; 20 mg/kg): 95.00 ± 17.73 s
- therapeutic index = TD50÷ED50 (DD model mice; DD mice): > 1000
- Immobility time (s) (mean ± SEM) (DD model mice; DD mice, 5 mg/kg): 146.30 ± 11.66 s
- Immobility time (s) (mean ± SEM) (DD model mice; DD mice, 10 mg/kg): 145.31 ± 12.41 s
- Immobility time (s) (mean ± SEM) (DD model mice; DD mice, 20 mg/kg): 140.69 ± 14.138 s
- Immobility time (s) (mean ± SEM) (DD model mice; DD mice, test 30 min after last dose, 1.25 mg/kg): 171.20 ± 13.02 s
- dose of the best efficacy (DD model mice; DD model mice, ORG oral): 20 mg/kg
- ED50 (DD model mice; Mus musculus, DD model mice, ORG oral): ~1.75 mg/kg

From patent publication US8859508B2, “Application of 5-methyl-1,3-benzenediol or derivatives thereof in the preparation of medicines and functional foods for treatment or prevention of depression” (Kunming Institute of Botany, Chinese Academy of Sciences, priority 2007, dated 2014)
